Results taken from patent publication US9504669B2, “Spliceostatin analogs and methods for their preparation” (PFIZER INC., priority 2012, dated 2016).
Structures can show the parent of a compound that is named as a salt.

What was measured:
Format in all cases: cell-based
[1] = test system: N87 (gastric cancer) cells; experiment: In vitro cell assay (MTS cell viability), N87; settings: 96 h, free compounds (natural products and synthetic analogs); cell viability 96 hours after treatment
Protocol: (§1) Target expressing (BT474 (breast cancer), N87 (gastric cancer), HCC1954 (breast cancer), MDA-MB-361-DYT2 (breast cancer)) or non-expressing (MDA-MB-468) cells were seeded in 96-well cell culture plates for 24 hours before treatment. Cells were treated with 3-fold serially diluted antibody-drug conjugates or free compounds (i.e., no antibody conjugated to the drug) in duplicate at 10 concentrations. Cell viability was determined by CellTiter 96® AQueous One Solution Cell Proliferation MTS Assay (Promega, Madison Wis.) 96 hours after treatment. Relative cell viability was determined as percentage of untreated control. IC50 values were calculated using a four parameter logistic model #203 with XLfit v4.2 (IDBS, Guildford, Surry, UK). The potency ranged upward from 0.0002 nm. Similar procedures and techniques were employed.

[2] = test system: MDA-MB-361-DYT2 (breast cancer) cells; experiment: In vitro cell assay (MTS cell viability), MDA-MB-361-DYT2; settings: 96 h, free compounds (natural products and synthetic analogs); cell viability 96 hours after treatment
Protocol: as §1

[3] = test system: BT474 (breast cancer) cells; experiment: In vitro cell assay (MTS cell viability), BT474; settings: Homo sapiens, BT-474; free compounds (natural products and synthetic analogs); cell viability 96 hours after treatment
Protocol: as §1

Structure (SMILES)	IC50 [1] [nM]	IC50 [2] [nM]	IC50 [3] [nM]
CC(=O)O[C@@H](C)/C=C\C(=O)N[C@@H]1C[C@H](C)[C@H](C/C=C(C)/C=C/[C@H]2O[C@H](CC(=O)NCc3ccc(N)cc3)C[C@@]3(CO3)[C@@H]2O)O[C@@H]1C [#B11, (2S,3Z)-5-{[(2R,3R,5S,6S)-6-{(2E,4E)-5-[(3R,4R,5R,7S)-7-{2-[(4-aminobenzyl)amino]-2-oxoethyl}-4-hydroxy-1,6-dioxaspiro[2.5]oct-5-yl]-3-methylpenta-2,4-dien-1-yl}-2,5-dimethyltetrahydro-2H-pyran-3-yl]amino}-5-oxopent-3-en-2-yl acetate]	1.61	6.71	3.42
CC(=O)O[C@@H](C)/C=C\C(=O)N[C@@H]1C[C@H](C)[C@H](C/C=C(C)/C=C/[C@H]2O[C@H](CC(=O)N3CCNCC3)C[C@@]3(CO3)[C@@H]2O)O[C@@H]1C [#B12, (2S,3Z)-5-({(2R,3R,5S,6S)-6-[(2E,4E)-5-{(3R,4R,5R,7S)-4-hydroxy-7-[2-oxo-2-(piperazin-1-yl)ethyl]-1,6-dioxaspiro[2.5]oct-5-yl}-3-methylpenta-2,4-dien-1-yl]-2,5-dimethyltetrahydro-2H-pyran-3-yl}amino)-5-oxopent-3-en-2-yl acetate, acetate salt]	54.6	87.8	55.5
CC(=O)O[C@@H](C)/C=C\C(=O)N[C@@H]1C[C@H](C)[C@H](C/C=C(C)/C=C/[C@H]2O[C@H](CC(=O)N3CCN(C)CC3)C[C@@]3(CO3)[C@@H]2O)O[C@@H]1C [#B13, (2S,3Z)-5-({(2R,3R,5S,6S)-6-[(2E,4E)-5-{(3R,4R,5R,7S)-4-hydroxy-7-[2-(4-methylpiperazin-1-yl)-2-oxoethyl]-1,6-dioxaspiro[2.5]oct-5-yl}-3-methylpenta-2,4-dien-1-yl]-2,5-dimethyltetrahydro-2H-pyran-3-yl}amino)-5-oxopent-3-en-2-yl acetate, acetate salt]	0.99	1.93	0.68
CC(=O)O[C@@H](C)/C=C\C(=O)N[C@@H]1C[C@H](C)[C@H](C/C=C(C)/C=C/[C@@H]2C[C@]3(CO3)C[C@@H](CC(=O)NO)O2)O[C@@H]1C [#B22, (2S,3Z)-5-({(2R,3R,5S,6S)-6-[(2E,4E)-5-{(3S,5S,7S)-7-[2-(hydroxyamino)-2-oxoethyl]-1,6-dioxaspiro[2.5]oct-5-yl}-3-methylpenta-2,4-dien-1-yl]-2,5-dimethyltetrahydro-2H-pyran-3-yl}amino)-5-oxopent-3-en-2-yl acetate]	4.23	7.46	1.76
CC(/C=C/[C@@H]1C[C@]2(CO2)C[C@@H](CC(N)=O)O1)=C\C[C@@H]1O[C@H](C)[C@H](NC(=O)/C=C\[C@H](C)O)C[C@@H]1C [#B39, (2Z,4S)—N-[(2R,3R,5S,6S)-6-{(2E,4E)-5-[(3S,5S,7S)-7-(2-amino-2-oxoethyl)-1,6-dioxaspiro[2.5]oct-5-yl]-3-methylpenta-2,4-dien-1-yl}-2,5-dimethyltetrahydro-2H-pyran-3-yl]-4-hydroxypent-2-enamide]	4.65	7.67	3.4
CC(/C=C/[C@@H]1C[C@]2(CO2)C[C@@H](CC(N)=O)O1)=C\C[C@@H]1O[C@H](C)[C@H](NC(=O)/C=C\[C@H](C)OC(=O)N2CCCCC2)C[C@@H]1C [#B40, (2S,3Z)-5-{[(2R,3R,5S,6S)-6-{(2E,4E)-5-[(3S,5S,7S)-7-(2-amino-2-oxoethyl)-1,6-dioxaspiro[2.5]oct-5-yl]-3-methylpenta-2,4-dien-1-yl}-2,5-dimethyltetrahydro-2H-pyran-3-yl]amino}-5-oxopent-3-en-2-yl piperidine-1-carboxylate]	6.76	5.84	1.86
COC(=O)C[C@@H]1C[C@@]2(CO2)[C@H](O)[C@@H](/C=C/C(C)=C/C[C@@H]2O[C@H](C)[C@H](NC(=O)/C=C\[C@H](C)OC(C)=O)C[C@@H]2C)O1 [#B55, methyl [(3R,5S,7R,8R)-7-{(1E,3E)-5-[(2S,3S,5R,6R)-5-{[(2Z,4S)-4-(acetyloxy)pent-2-enoyl]amino}-3,6-dimethyltetrahydro-2H-pyran-2-yl]-3-methylpenta-1,3-dien-1-yl}-8-hydroxy-1,6-dioxaspiro[2.5]oct-5-yl]acetate]	0.822	1.26	0.879
CCCNC(=O)C[C@@H]1C[C@@]2(CO2)[C@H](O)[C@@H](/C=C/C(C)=C/C[C@@H]2O[C@H](C)[C@H](NC(=O)/C=C\[C@H](C)OC(=O)C(C)C)C[C@@H]2C)O1 [#B71, (2S,3Z)-5-({(2R,3R,5S,6S)-6-[(2E,4E)-5-{(3R,4R,5R,7S)-4-hydroxy-7-[2-oxo-2-(propylamino)ethyl]-1,6-dioxaspiro[2.5]oct-5-yl}-3-methylpenta-2,4-dien-1-yl]-2,5-dimethyltetrahydro-2H-pyran-3-yl}amino)-5-oxopent-3-en-2-yl 2-methylpropanoate]	0.451	1.36	1.08
CC(=O)O[C@@H](C)/C=C\C(=O)N[C@@H]1C[C@H](C)[C@H](C/C=C(C)/C=C/[C@H]2O[C@H](CC(=O)N3CCCCC3)C[C@@]3(CO3)[C@@H]2O)O[C@@H]1C [#B72, (2S,3Z)-5-({(2R,3R,5S,6S)-6-[(2E,4E)-5-{(3R,4R,5R,7S)-4-hydroxy-7-[2-oxo-2-(piperidin-1-yl)ethyl]-1,6-dioxaspiro[2.5]oct-5-yl}-3-methylpenta-2,4-dien-1-yl]-2,5-dimethyltetrahydro-2H-pyran-3-yl}amino)-5-oxopent-3-en-2-yl acetate]	0.481	1.16	0.607
CC(=O)O[C@@H](C)/C=C\C(=O)N[C@@H]1C[C@H](C)[C@H](C/C=C(C)/C=C/[C@@H]2C[C@]3(CO3)C[C@@H](CC(=O)NC(C)(C)C(=O)O)O2)O[C@@H]1C [#B79, N-{[(3S,5S,7S)-7-{(1E,3E)-5-[(2S,3S,5R,6R)-5-{[(2Z,4S)-4-(acetyloxy)pent-2-enoyl]amino}-3,6-dimethyltetrahydro-2H-pyran-2-yl]-3-methylpenta-1,3-dien-1-yl}-1,6-dioxaspiro[2.5]oct-5-yl]acetyl}-2-methylalanine]	0.423	1.31	0.723
CSCCN(C)C(=O)C[C@@H]1C[C@@]2(CO2)[C@H](O)[C@@H](/C=C/C(C)=C/C[C@@H]2O[C@H](C)[C@H](NC(=O)/C=C\[C@H](C)OC(C)=O)C[C@@H]2C)O1 [#B82, (2S,3Z)-5-{[(2R,3R,5S,6S)-6-{(2E,4E)-5-[(3R,4R,5R,7S)-4-hydroxy-7-(2-{methyl[2-(methylsulfanyl)ethyl]amino}-2-oxoethyl)-1,6-dioxaspiro[2.5]oct-5-yl]-3-methylpenta-2,4-dien-1-yl}-2,5-dimethyltetrahydro-2H-pyran-3-yl]amino}-5-oxopent-3-en-2-yl acetate]	0.12	0.251	0.288
CNc1cccc(CNC(=O)C[C@@H]2C[C@@]3(CO3)[C@H](O)[C@@H](/C=C/C(C)=C/C[C@@H]3O[C@H](C)[C@H](NC(=O)/C=C\[C@H](C)OC(C)=O)C[C@@H]3C)O2)c1 [#B83, (2S,3Z)-5-{[(2R,3R,5S,6S)-6-{(2E,4E)-5-[(3R,4R,5R,7S)-4-hydroxy-7-(2-{[3-(methylamino)benzyl]amino}-2-oxoethyl)-1,6-dioxaspiro[2.5]oct-5-yl]-3-methylpenta-2,4-dien-1-yl}-2,5-dimethyltetrahydro-2H-pyran-3-yl]amino}-5-oxopent-3-en-2-yl acetate]	1.05	2.59	1.45
CC(=O)O[C@@H](C)/C=C\C(=O)N[C@@H]1C[C@H](C)[C@H](C/C=C(C)/C=C/[C@H]2O[C@H](CC(=O)NCc3ccc(N)cc3F)C[C@@]3(CO3)[C@@H]2O)O[C@@H]1C [#B84, (2S,3Z)-5-{[(2R,3R,5S,6S)-6-{(2E,4E)-5-[(3R,4R,5R,7S)-7-{2-[(4-amino-2-fluorobenzyl)amino]-2-oxoethyl}-4-hydroxy-1,6-dioxaspiro[2.5]oct-5-yl]-3-methylpenta-2,4-dien-1-yl}-2,5-dimethyltetrahydro-2H-pyran-3-yl]amino}-5-oxopent-3-en-2-yl acetate]	2.54	8.27	2.53
CC(=O)O[C@@H](C)/C=C\C(=O)N[C@@H]1C[C@H](C)[C@H](C/C=C(C)/C=C/[C@H]2O[C@H](CC(=O)NCc3ccc(N)c(F)c3)C[C@@]3(CO3)[C@@H]2O)O[C@@H]1C [#B85, (2S,3Z)-5-{[(2R,3R,5S,6S)-6-{(2E,4E)-5-[(3R,4R,5R,7S)-7-{2-[(4-amino-3-fluorobenzyl)amino]-2-oxoethyl}-4-hydroxy-1,6-dioxaspiro[2.5]oct-5-yl]-3-methylpenta-2,4-dien-1-yl}-2,5-dimethyltetrahydro-2H-pyran-3-yl]amino}-5-oxopent-3-en-2-yl acetate]	1.56	5.5	1.47
CC(=O)O[C@@H](C)/C=C\C(=O)N[C@@H]1C[C@H](C)[C@H](C/C=C(C)/C=C/[C@H]2O[C@H](CC(=O)NCc3ccc(N)c(C(F)(F)F)c3)C[C@@]3(CO3)[C@@H]2O)O[C@@H]1C [#B88, (2S,3Z)-5-{[(2R,3R,5S,6S)-6-{(2E,4E)-5-[(3R,4R,5R,7S)-7-(2-{[4-amino-3-(trifluoromethyl)benzyl]amino}-2-oxoethyl)-4-hydroxy-1,6-dioxaspiro[2.5]oct-5-yl]-3-methylpenta-2,4-dien-1-yl}-2,5-dimethyltetrahydro-2H-pyran-3-yl]amino}-5-oxopent-3-en-2-yl acetate]	0.73	2.96	1.8
